Source: US20250205259A1, “CLASS OF 7-((FIVE-MEMBERED HETEROCYCLIC)METHYL)-8-CARBOXYLIC ACID-BENZO CYCLIC BORATE DERIVATIVES AND USES THEREOF” (priority 2022, published 2025)
Read-outs that look alike come from different tables or passages of the source.

Tests used:
VIM-1 = VIM-1 (Pseudomonas aeruginosa, UniProt A0A0F7KYQ8); experiment: Inhibitory activity on MBL, fluorescent substrate FC-5; format: biochemical
KPC-2 = KPC-2 (Klebsiella pneumoniae, UniProt Q9F663); experiment: Inhibitory activity on SBL, fluorescent substrate FC-5; format: biochemical; details: for inhibitory activity on KPC-2 compared to avibactam: comparison in words
AmpC = AmpC (UniProt P24735); experiment: as above
OXA-48 = OXA-48 (Klebsiella pneumoniae, UniProt Q6XEC0); experiment: as above; format: biochemical; details: for inhibitory activity on OXA-48 compared to avibactam: comparison in words
NDM-1 = NDM-1 (Klebsiella pneumoniae, UniProt C7C422); experiment: Inhibitory activity on MBL, fluorescent substrate FC-5; format: biochemical
CTX-M-14 = CTX-M-14 (Escherichia coli, UniProt Q9L5C7); experiment: Inhibitory activity on SBL, fluorescent substrate FC-5; format: biochemical; details: for inhibitory activity on CTX-M-14 compared to avibactam: comparison in words
SHV-12 = molecular target: T1, SHV-12 (UniProt P0AD64, L31Q/G234S/E235K, species not given); experiment: as above; format: biochemical; details: for inhibitory activity on SHV-12 compared to control drugs: comparison in words
T1 sequence (P0AD64 1-286 L31Q/G234S/E235K): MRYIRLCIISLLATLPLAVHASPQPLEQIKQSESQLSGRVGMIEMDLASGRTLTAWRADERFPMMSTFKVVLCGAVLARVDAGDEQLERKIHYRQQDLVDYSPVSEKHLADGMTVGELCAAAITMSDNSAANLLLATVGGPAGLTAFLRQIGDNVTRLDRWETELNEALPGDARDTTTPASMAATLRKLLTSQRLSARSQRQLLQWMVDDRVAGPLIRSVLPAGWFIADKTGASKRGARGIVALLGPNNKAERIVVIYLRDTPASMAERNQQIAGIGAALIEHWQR

NDM-5 = NDM-5 (Klebsiella pneumoniae, UniProt C7C422, M154L/V88L); experiment: Inhibitory activity on MBL, fluorescent substrate FC-5; format: biochemical
VIM-2 = VIM-2 (Escherichia coli, UniProt Q5U7L7); experiment: as above; format: biochemical
IMP-1 = IMP-1 (Serratia marcescens, UniProt P52699); experiment: as above; format: biochemical
[1] = system: Escherichia coli expressing IMP-1; experiment: Antibacterial activity in combination with meropenem (MIC), clinically isolated strains; format: cell-based; details: clinical isolate EC1541 (blaIMP-1), compound final concentration 10 μM
[2] = system: Klebsiella pneumoniae expressing KPC-2; experiment: as above; details: compound final concentration 10 μM
TEM-1 = TEM-1 (Escherichia coli, UniProt P62593); experiment: Inhibitory activity on SBL, fluorescent substrate FC-5; format: biochemical; details: for inhibitory activity on TEM-1 compared to avibactam: comparison in words; for IC50: read-out: Inhibitory activity on SBL TEM-1 (IC50 class)
[3] = read-out: Inhibitory activity on MBL VIM-1 (IC50 class)
[4] = read-out: Inhibitory activity on SBL KPC-2 (IC50 class)
[5] = read-out: Inhibitory activity on SBL AmpC (IC50 class)
[6] = read-out: Inhibitory activity on SBL OXA-48 (IC50 class)
[7] = read-out: Inhibitory activity on MBL NDM-1 (IC50 class)
[8] = read-out: Inhibitory activity on SBL CTX-M-14 (IC50 class)
[9] = read-out: Inhibitory activity on SBL SHV-12 (IC50 class)
[10] = read-out: Inhibitory activity on MBL NDM-5 (IC50 class)
[11] = read-out: Inhibitory activity on MBL VIM-2 (IC50 class)
[12] = read-out: Inhibitory activity on MBL IMP-1 (IC50 class)
[13] = VIM-1 and/or VIM-2, read-out: inhibitory activity at a nanomolar-level on VIM-1 and/or VIM-2
[14] = read-out: inhibitory activity at a nanomolar-level on NDM-1
[15] = read-out: inhibitory activity at a nanomolar-level on NDM-5

Chain of NDM-1 (C7C422 29-270 limits assumed): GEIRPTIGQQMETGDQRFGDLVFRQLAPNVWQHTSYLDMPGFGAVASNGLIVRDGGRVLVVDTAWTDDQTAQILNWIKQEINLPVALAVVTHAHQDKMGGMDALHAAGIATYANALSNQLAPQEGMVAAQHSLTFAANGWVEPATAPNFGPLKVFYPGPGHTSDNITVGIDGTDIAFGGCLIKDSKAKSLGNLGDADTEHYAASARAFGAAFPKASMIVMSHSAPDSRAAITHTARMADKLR
Chain of CTX-M-14 (Q9L5C7 entry or part of it): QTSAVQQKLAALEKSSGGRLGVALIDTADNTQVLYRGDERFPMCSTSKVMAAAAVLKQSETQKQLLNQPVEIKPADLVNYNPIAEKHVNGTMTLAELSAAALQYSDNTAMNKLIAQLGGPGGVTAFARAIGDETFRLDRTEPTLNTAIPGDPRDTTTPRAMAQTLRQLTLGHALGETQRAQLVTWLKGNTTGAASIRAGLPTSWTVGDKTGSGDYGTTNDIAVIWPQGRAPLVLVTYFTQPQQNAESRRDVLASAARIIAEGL
Chain of KPC-2 (Q9F663 25-293 limits assumed): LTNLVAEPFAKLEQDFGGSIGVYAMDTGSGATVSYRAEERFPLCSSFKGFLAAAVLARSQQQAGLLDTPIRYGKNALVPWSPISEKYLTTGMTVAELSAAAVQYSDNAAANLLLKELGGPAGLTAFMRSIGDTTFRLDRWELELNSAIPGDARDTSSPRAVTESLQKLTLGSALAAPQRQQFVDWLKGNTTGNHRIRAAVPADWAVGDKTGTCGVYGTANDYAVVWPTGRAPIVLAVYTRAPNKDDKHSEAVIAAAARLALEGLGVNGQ
Chain of TEM-1 (P62593 24-286 limits assumed): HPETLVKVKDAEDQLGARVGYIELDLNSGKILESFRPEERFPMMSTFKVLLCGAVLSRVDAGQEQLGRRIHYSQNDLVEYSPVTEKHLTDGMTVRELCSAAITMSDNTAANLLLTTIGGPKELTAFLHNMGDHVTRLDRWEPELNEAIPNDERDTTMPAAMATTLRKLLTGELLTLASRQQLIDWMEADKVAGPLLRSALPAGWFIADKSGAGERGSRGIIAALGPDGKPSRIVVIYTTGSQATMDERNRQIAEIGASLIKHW
Chain of NDM-5 (C7C422 29-270 V88L/M154L): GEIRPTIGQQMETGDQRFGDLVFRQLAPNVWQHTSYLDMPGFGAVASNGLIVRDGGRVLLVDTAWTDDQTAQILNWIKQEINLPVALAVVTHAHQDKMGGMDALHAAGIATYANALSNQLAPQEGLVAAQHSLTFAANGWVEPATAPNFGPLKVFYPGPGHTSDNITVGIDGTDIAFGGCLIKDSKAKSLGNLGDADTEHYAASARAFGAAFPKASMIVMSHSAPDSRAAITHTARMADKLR
Chain of OXA-48 (Q6XEC0 23-265 limits assumed): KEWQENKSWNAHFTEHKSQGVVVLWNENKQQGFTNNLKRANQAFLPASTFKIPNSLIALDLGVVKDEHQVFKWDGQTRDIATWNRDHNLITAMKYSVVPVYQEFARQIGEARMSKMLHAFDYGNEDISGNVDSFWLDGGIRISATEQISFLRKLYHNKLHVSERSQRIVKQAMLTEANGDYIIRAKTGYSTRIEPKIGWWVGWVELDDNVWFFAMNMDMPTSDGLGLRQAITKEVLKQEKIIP
Chain of IMP-1 (P52699 19-246 limits assumed): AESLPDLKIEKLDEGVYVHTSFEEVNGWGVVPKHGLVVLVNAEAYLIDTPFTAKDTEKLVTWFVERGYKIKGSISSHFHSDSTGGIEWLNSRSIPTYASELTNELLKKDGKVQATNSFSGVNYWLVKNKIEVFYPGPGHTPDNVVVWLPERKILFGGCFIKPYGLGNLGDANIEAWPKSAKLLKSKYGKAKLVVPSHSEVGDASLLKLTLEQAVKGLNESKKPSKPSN

SMILES	IC50 (VIM-1; [3]) [µM]	IC50 (KPC-2; [4]) [µM]	IC50 (AmpC; [5]) [µM]	IC50 (OXA-48; [6]) [µM]	IC50 (NDM-1; [7]) [µM]	IC50 (CTX-M-14; [8]) [µM]	IC50 (SHV-12; [9]) [µM]	IC50 (NDM-5; [10]) [µM]	IC50 (VIM-2; [11]) [µM]	IC50 (IMP-1; [12]) [µM]	IC50 (VIM-1; [13]) [µM]	inhibitory activity on TEM-1 compared to avibactam (TEM-1)	IC50 (TEM-1) [µM]	inhibitory activity on KPC-2 compared to avibactam (KPC-2)	inhibitory activity on OXA-48 compared to avibactam (OXA-48)	IC50 (NDM-1; [14]) [µM]	inhibitory activity on CTX-M-14 compared to avibactam (CTX-M-14)	inhibitory activity on SHV-12 compared to control drugs (SHV-12)	IC50 (NDM-5; [15]) [µM]	also measured
O=C(O)c1c(CNc2nncs2)ccc2c1OB(O)CC2 [Comparative example 1 compound 64, reference compound]	1 to 100	0.01 to 1	1 to 100	0.01 to 1	1 to 100	0.01 to 1	1 to 100	1 to 100	1 to 100	> 100	–	–	–	–	–	–	–	–	–	IC50 (VIM-1; unit inferred, read-out: VIM-1, number in parentheses under the class symbol): 5.5 µM; IC50 (KPC-2; unit inferred, read-out: KPC-2, number in parentheses under the class symbol): 0.065 µM; IC50 (AmpC; read-out: AmpC, number in parentheses under the class symbol, unit inferred): 7.5 µM; IC50 (OXA-48; unit inferred, read-out: OXA-48, number in parentheses under the class symbol): 0.154 µM; IC50 (NDM-1): 3.23 µM; IC50 (CTX-M-14; unit inferred, read-out: CTX-M-14, number in parentheses under the class symbol): 0.063 µM; IC50 (SHV-12; unit inferred, read-out: SHV-12, number in parentheses under the class symbol): 1.58 µM; IC50 (NDM-5; unit inferred, read-out: NDM-5, number in parentheses under the class symbol): 3.23 µM; IC50 (VIM-2; unit inferred, read-out: VIM-2, number in parentheses under the class symbol): 8.1 µM; IC50 (IMP-1; unit inferred, read-out: IMP-1, number in parentheses under the class symbol): 103 µM
NCCN[C@H]1CC[C@H](CC(=O)N[C@H]2Cc3cccc(C(=O)O)c3OB2O)CC1 [Taniborbactam, reference compound]	0.01 to 1	0.01 to 1	–	0.01 to 1	–	0.01 to 1	–	–	< 0.01	1 to 100	–	–	–	–	–	–	–	–	–	MIC value of compounds in combination with meropenem, EC1541 (blaIMP-1) [1]: ++++ (++++ indicates MIC < 4 μg/ml); MIC value of compounds in combination with meropenem, KP090344 (blaKPC-2) ([2]; clinical isolate KP090344 (blaKPC-2)): ++++ (++++ indicates MIC < 4 μg/ml); MIC value of compounds in combination with meropenem, KP140508 (blaKPC-2) ([2]; clinical isolate KP140508 (blaKPC-2)): ++++ (++++ indicates MIC < 4 μg/ml); MIC value of compounds in combination with meropenem, KP140912 (blaKPC-2) ([2]; clinical isolate KP140912 (blaKPC-2)): ++++ (++++ indicates MIC < 4 μg/ml)
NC(=O)N1Cc2cn(Cc3ccc4c(c3C(=O)O)OB(O)CC4)nc2C1 [Compound 73]	0.01 to 1	< 0.01	0.01 to 1	0.01 to 1	0.01 to 1	0.01 to 1	< 0.01	0.01 to 1	0.01 to 1	0.01 to 1	< 1	better or comparable	< 0.01	better or comparable	better or comparable	< 1	better or comparable	comparable to avibactam and tazobactam and superior to taniborbactam	< 1	–
CN1Cc2cn(Cc3ccc4c(c3C(=O)O)OB(O)CC4)nc2C1 [Compound 74]	0.01 to 1	< 0.01	0.01 to 1	0.01 to 1	0.01 to 1	0.01 to 1	< 0.01	0.01 to 1	0.01 to 1	0.01 to 1	< 1	better or comparable	< 0.01	better or comparable	better or comparable	< 1	better or comparable	comparable to avibactam and tazobactam and superior to taniborbactam	< 1	–
